Test results: patent publication US11053204B2, “Pyrimidinyloxy benzene derivatives as herbicides” (FMC Corporation, priority 2015, dated 2021)

Tests used:
Assay type in all cases: in vivo
[1] = tested on: nutsedge, yellow (yellow nutsedge, Cyperus esculentus); assay: Test C preemergence, plant response rating; details: Cyperus, pre-emergence, Preemergence
Source text: (§1) Seeds of plant species selected from blackgrass (Alopecurus myosuroides), ryegrass, Italian (Italian ryegrass, Lolium multiflorum), wheat (winter wheat, Triticum aestivum), galium (catchweed bedstraw, Galium aparine), corn (Zea mays), crabgrass, large (large crabgrass, Digitaria sanguinalis), foxtail, giant (giant foxtail, Setaria faberii), johnsongrass (Sorghum halepense), lambsquarters (Chenopodium album), morningglory (Ipomoea coccinea), nutsedge, yellow (yellow nutsedge, Cyperus esculentus), pigweed (Amaranthus retroflexus), ragweed (common ragweed, Ambrosia elatior), soybean (Glycine max), barnyardgrass (Echinochloa crus-galli), oilseed rape (Brassica napus), pigweed, palmer (palmer pigweed, Amaranthus palmeri), waterhemp (common waterhemp, Amaranthus rudis), velvetleaf (Abutilon theophrasti), kochia (Kochia scoparia), surinam grass (Brachiaria decumbens), nightshade (eastern black nightshade, Solanum ptycanthum), wild poinsettia (Euphorbia heterophylla), windgrass (Apera spica-venti), and oat, wild (wild oat Avena fatua), were planted into a blend of loam soil and sand or a silt loam soil and treated preemergence with test chemicals formulated in a non-phytotoxic solvent mixture which included a surfactant.
(§2) At the same time, plants selected from these crop and weed species and also chickweed (common chickweed, Stellaria media), buckwheat, wild (wild buckwheat, Polygonum convolvulus), wild mustard (Sinapis arvensis), field poppy (Papaver rhoeas), field violet (Viola arvensis), geranium, cutleaf (cutleaf geranium, Geranium dissectum), Canada thistle (Cirsium arvense), and speedwell (bird's-eye speedwell, Veronica persica), were planted in pots containing Sunshine Redi-Earth® planting medium comprising spaghnum peat moss, vermiculite, starter nutrients and dolomitic limestone and treated with postemergence applications of test chemicals formulated in the same manner. Plants ranged in height from 2 to 18 cm (1- to 4-leaf stage) for postemergence treatments. Treated plants and controls were maintained in a greenhouse for 13 to 15 d, after which time all species were compared to controls and visually evaluated. Plant response ratings, summarized in Table C, are based on a scale of 0 to 100 where 0 is no effect and 100 is complete control. A dash (-) response means no test result.

[2] = tested on: oilseed rape (Brassica napus); assay: Test C preemergence, plant response rating; details: Brassica napus, pre-emergence, Preemergence
Source text: as §1, §2

[3] = tested on: ryegrass, Italian (Italian ryegrass, Lolium multiflorum); assay: Test C preemergence, plant response rating; details: Lolium multiflorum, pre-emergence, Preemergence
Source text: as §1, §2

[4] = tested on: corn (Zea mays); assay: Test C preemergence, plant response rating; details: Zea mays, pre-emergence, Preemergence
Source text: as §1, §2

[5] = tested on: lambsquarters (Chenopodium album); assay: Test C preemergence, plant response rating; details: Chenopodium album, pre-emergence, Preemergence
Source text: as §1, §2

[6] = tested on: wheat (winter wheat, Triticum aestivum); assay: Test C preemergence, plant response rating; details: Triticum aestivum, pre-emergence, Preemergence
Source text: as §1, §2

[7] = tested on: foxtail, giant (giant foxtail, Setaria faberii); assay: Test C preemergence, plant response rating; details: Setaria faberi, pre-emergence, Preemergence
Source text: as §1, §2

[8] = tested on: morningglory (Ipomoea coccinea); assay: Test C preemergence, plant response rating; details: Ipomoea, pre-emergence, Preemergence
Source text: as §1, §2

[9] = tested on: blackgrass (Alopecurus myosuroides); assay: Test C preemergence, plant response rating; details: Alopecurus myosuroides, pre-emergence, Preemergence
Source text: as §1, §2

[10] = tested on: soybean (Glycine max); assay: Test C preemergence, plant response rating; details: Glycine max, pre-emergence, Preemergence
Source text: as §1, §2

[11] = tested on: waterhemp (common waterhemp, Amaranthus rudis); assay: Test C preemergence, plant response rating; details: Amaranthus tuberculatus, pre-emergence, Preemergence
Source text: as §1, §2

[12] = tested on: crabgrass, large (large crabgrass, Digitaria sanguinalis); assay: Test C preemergence, plant response rating; details: Digitaria sanguinalis, pre-emergence, Preemergence
Source text: as §1, §2

[13] = tested on: ragweed (common ragweed, Ambrosia elatior); assay: Test C preemergence, plant response rating; details: Ambrosia artemisiifolia, pre-emergence, Preemergence
Source text: as §1, §2

[14] = tested on: velvetleaf (Abutilon theophrasti); assay: Test C preemergence, plant response rating; details: Abutilon theophrasti, pre-emergence, Preemergence
Source text: as §1, §2

[15] = tested on: pigweed (Amaranthus retroflexus); assay: Test A preemergence, visual injury rating; details: Amaranthus retroflexus, pre-emergence, 240 h, 0 to 100 scale (0 no effect, 100 complete control), read-out: Pigweed plant response rating
How it was run: (§3)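 Greenhouse pot test, loam/sand soil. Formulation: non-phytotoxic solvent mix plus surfactant. Pre: directed spray onto soil after sowing. Post: plants at 1–2 leaf, 2–10 cm. Rated visually vs untreated controls at ~10 d, 0 (no effect) to 100 (complete control).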

[16] = tested on: giant foxtail (Setaria faberii); assay: Test A preemergence, visual injury rating; details: Setaria faberi, pre-emergence, 240 h, 0 to 100 scale (0 no effect, 100 complete control), read-out: Foxtail, Giant plant response rating
How it was run: as §3

[17] = tested on: Italian ryegrass (Lolium multiflorum); assay: Test A preemergence, visual injury rating; details: Lolium multiflorum, pre-emergence, 240 h, 0 to 100 scale (0 no effect, 100 complete control), read-out: Ryegrass, Italian plant response rating
How it was run: as §3

[18] = tested on: ragweed (common ragweed, Ambrosia elatior); assay: Test A preemergence, visual injury rating; details: Ambrosia artemisiifolia, pre-emergence, 240 h, 0 to 100 scale (0 no effect, 100 complete control), read-out: Ragweed plant response rating
How it was run: as §3

SMILES: O=C(OCCC(F)(F)F)c1c(Cl)cccc1Oc1ncc(Cl)cn1 [Compound 15, 3,3,3-trifluoropropyl 2-chloro-6-[(5-chloro-2-pyrimidinyl)oxy]benzoate]
- pest or weed control at 125 g/ha ([1]; 125 g ai/ha, scale of 0 to 100): 50%
- pest or weed control at 16 g/ha ([1]; 16 g ai/ha, scale 0 to 100): 0%
- pest or weed control at 31 g/ha ([1]; 31 g ai/ha, scale 0 to 100): 0%
- pest or weed control at 62 g/ha ([1]; 62 g ai/ha, scale 0 to 100): 5%
- plant injury at 125 g/ha ([2]; 125 g ai/ha, scale of 0 to 100): 100%
- plant injury at 16 g/ha ([2]; 16 g ai/ha, scale 0 to 100): 30%
- plant injury at 31 g/ha ([2]; 31 g ai/ha, scale 0 to 100): 100%
- plant injury at 62 g/ha ([2]; 62 g ai/ha, scale 0 to 100): 100%
- pest or weed control at 125 g/ha ([3]; 125 g ai/ha, scale of 0 to 100): 50%
- pest or weed control at 16 g/ha ([3]; 16 g ai/ha, scale 0 to 100): 0%
- pest or weed control at 31 g/ha ([3]; 31 g ai/ha, scale 0 to 100): 5%
- pest or weed control at 62 g/ha ([3]; 62 g ai/ha, scale 0 to 100): 15%
- Corn plant response rating (crop injury, 0 = no effect, 100 = complete kill) at 62 g/ha ([4]; 62 g ai/ha, scale of 0 to 100): 10%
- Corn plant response rating (crop injury, 0 = no effect, 100 = complete kill) at 125 g/ha ([4]; 125 g ai/ha, scale of 0 to 100): 25%
- Corn plant response rating (crop injury, 0 = no effect, 100 = complete kill) at 16 g/ha ([4]; 16 g ai/ha, scale 0 to 100): 0%
- Corn plant response rating (crop injury, 0 = no effect, 100 = complete kill) at 31 g/ha ([4]; 31 g ai/ha, scale 0 to 100): 0%
- pest or weed control at 125 g/ha ([5]; 125 g ai/ha, scale of 0 to 100): 95%
- pest or weed control at 16 g/ha ([5]; 16 g ai/ha, scale 0 to 100): 60%
- pest or weed control at 31 g/ha ([5]; 31 g ai/ha, scale 0 to 100): 70%
- pest or weed control at 62 g/ha ([5]; 62 g ai/ha, scale 0 to 100): 85%
- plant injury at 125 g/ha ([6]; 125 g ai/ha, scale of 0 to 100): 5%
- plant injury at 16 g/ha ([6]; 16 g ai/ha, scale 0 to 100): 0%
- plant injury at 31 g/ha ([6]; 31 g ai/ha, scale 0 to 100): 0%
- plant injury at 62 g/ha ([6]; 62 g ai/ha, scale 0 to 100): 0%
- pest or weed control at 62 g/ha ([7]; 62 g ai/ha, scale of 0 to 100): 100%
- pest or weed control at 125 g/ha ([7]; 125 g ai/ha, scale of 0 to 100): 100%
- pest or weed control at 16 g/ha ([7]; 16 g ai/ha, scale 0 to 100): 100%
- pest or weed control at 31 g/ha ([7]; 31 g ai/ha, scale 0 to 100): 100%
- pest or weed control at 125 g/ha ([8]; 125 g ai/ha, scale of 0 to 100): 60%
- pest or weed control at 16 g/ha ([8]; 16 g ai/ha, scale 0 to 100): 20%
- pest or weed control at 31 g/ha ([8]; 31 g ai/ha, scale 0 to 100): 20%
- pest or weed control at 62 g/ha ([8]; 62 g ai/ha, scale 0 to 100): 35%
- pest or weed control at 62 g/ha ([9]; 62 g ai/ha, scale of 0 to 100): 50%
- pest or weed control at 125 g/ha ([9]; 125 g ai/ha, scale of 0 to 100): 80%
- pest or weed control at 16 g/ha ([9]; 16 g ai/ha, scale 0 to 100): 0%
- pest or weed control at 31 g/ha ([9]; 31 g ai/ha, scale 0 to 100): 0%
- plant injury at 125 g/ha ([10]; 125 g ai/ha, scale of 0 to 100): 55%
- plant injury at 16 g/ha ([10]; 16 g ai/ha, scale 0 to 100): 0%
- plant injury at 31 g/ha ([10]; 31 g ai/ha, scale 0 to 100): 10%
- plant injury at 62 g/ha ([10]; 62 g ai/ha, scale 0 to 100): 40%
- pest or weed control at 125 g/ha ([11]; 125 g ai/ha, scale of 0 to 100): 100%
- pest or weed control at 16 g/ha ([11]; 16 g ai/ha, scale 0 to 100): 90%
- pest or weed control at 31 g/ha ([11]; 31 g ai/ha, scale 0 to 100): 100%
- pest or weed control at 62 g/ha ([11]; 62 g ai/ha, scale 0 to 100): 100%
- pest or weed control at 62 g/ha ([12]; 62 g ai/ha, scale of 0 to 100): 100%
- pest or weed control at 125 g/ha ([12]; 125 g ai/ha, scale of 0 to 100): 100%
- pest or weed control at 16 g/ha ([12]; 16 g ai/ha, scale 0 to 100): 95%
- pest or weed control at 31 g/ha ([12]; 31 g ai/ha, scale 0 to 100): 100%
- pest or weed control at 125 g/ha ([13]; 125 g ai/ha, scale of 0 to 100): 20%
- pest or weed control at 16 g/ha ([13]; 16 g ai/ha, scale 0 to 100): 10%
- pest or weed control at 31 g/ha ([13]; 31 g ai/ha, scale 0 to 100): 10%
- pest or weed control at 62 g/ha ([13]; 62 g ai/ha, scale 0 to 100): 30%
- pest or weed control at 125 g/ha ([14]; 125 g ai/ha, scale of 0 to 100): 100%
- pest or weed control at 16 g/ha ([14]; 16 g ai/ha, scale 0 to 100): 60%
- pest or weed control at 31 g/ha ([14]; 31 g ai/ha, scale 0 to 100): 85%
- pest or weed control at 62 g/ha ([14]; 62 g ai/ha, scale 0 to 100): 100%
- pest or weed control at 125 g/ha ([15]; 125 g ai/ha): 100%
- pest or weed control at 500 g/ha ([15]; 500 g ai/ha): 100%
- pest or weed control at 125 g/ha ([16]; 125 g ai/ha): 100%
- pest or weed control at 500 g/ha ([16]; 500 g ai/ha): 100%
- pest or weed control at 125 g/ha ([17]; 125 g ai/ha): 40%
- pest or weed control at 500 g/ha ([17]; 500 g ai/ha): 90%
- pest or weed control at 125 g/ha ([18]; 125 g ai/ha): 0%
- pest or weed control at 500 g/ha ([18]; 500 g ai/ha): 10%
